What was measured:
serotonin 5-HT6 receptor = biological target: T1, serotonin 5-HT6 receptor (Homo sapiens, UniProt P50406); assay: cAMP in Cos-7 cells transfected with serotonin 5-HT6 receptor; assay type: cell-based; details: 10 μM, serotonin 5-HT6 (FIG. 7)
T1 construct: expressed in transfected cells; host or cells: Cos-7 cells
Method: (§1) A typical protocol for the electroporation method as applied to Cos-7 cells is described as follows. Cells to be used for transfection are split 24 hours prior to the transfection to provide flasks which are subconfluent at the time of transfection. The cells are harvested by trypsinization resuspended in their growth media and counted. 5×10^6 cells are suspended in 300 μl of DMEM and placed into an electroporation cuvette. 8 μg of receptor DNA plus 8 μg of any additional DNA needed (e.g. G protein expression vector, reporter construct, antibiotic resistance marker, mock vector, etc.) is added to the cell suspension, the cuvette is placed into a BioRad Gene Pulser and subjected to an electrical pulse (Gene Pulser settings: 0.25 kV voltage, 950 μF capacitance). Following the pulse, 800 μl of complete DMEM is added to each cuvette and the suspension transferred to a sterile tube. Complete medium is added to each tube to bring the final cell concentration to 1×10^5 cells/100 μl. […]
(§2) The receptor-mediated stimulation or inhibition of cyclic AMP (cAMP) formation may be assayed in cells expressing the receptors. […] The plates are stored at 4° C. for 15 min, and the cAMP content in the stopping solution is measured by radioimmunoassay. Radioactivity may be quantified using a gamma counter equipped with data reduction software. […]

SNORF25 [1] = biological target: T2, SNORF25 (Homo sapiens, UniProt Q8TDV5); assay: CFTR Cl- currents in Xenopus oocytes co-injected with SNORF25 and CFTR mRNA; assay type: cell-based; set-up: from linearized plasmids or PCR products containing the complete coding region of the genes; expressed in transfected cells; host or cells: Xenopus laevis oocytes injected with SNORF25 mRNA (with or without CFTR mRNA)
T2 sequence (Q8TDV5 1-335): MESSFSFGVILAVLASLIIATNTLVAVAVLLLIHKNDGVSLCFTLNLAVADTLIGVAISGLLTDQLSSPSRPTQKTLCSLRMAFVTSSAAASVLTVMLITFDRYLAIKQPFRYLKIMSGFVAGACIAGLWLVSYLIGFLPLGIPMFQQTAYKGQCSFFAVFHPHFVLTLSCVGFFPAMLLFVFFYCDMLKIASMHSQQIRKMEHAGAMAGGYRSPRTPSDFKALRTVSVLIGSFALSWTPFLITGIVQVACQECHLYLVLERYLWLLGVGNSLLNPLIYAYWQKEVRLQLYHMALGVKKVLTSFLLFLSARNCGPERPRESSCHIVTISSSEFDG
Method: (§3) Oocytes are harvested from Xenopus laevis and injected with mRNA transcripts as previously described (Quick and Lester, 1994; Smith et al., 1997). The test receptor of this invention and Gα subunit RNA transcripts are synthesized using the T7 polymerase (“Message Machine,” Ambion) from linearized plasmids or PCR products containing the complete coding region of the genes. Oocytes are injected with 10 ng synthetic receptor RNA and incubated for 3–8 days at 17 degrees. Three to eight hours prior to recording, oocytes are injected with 500 pg promiscuous Gα subunits mRNA in order to observe coupling to Ca^++ activated Cl^− currents.
Each of the compounds was tested at 10 μM. Oocytes expressing SNORF25 generated inward Cl^− currents, consistent with CFTR activation, in response to all four of the ligands.
The activity of SNORF25 was therefore tested in oocytes co-injected with mRNA encoding SNORF25 and mRNA encoding CFTR. In 17 out of 39 of these oocytes an inward Cl^− current (105±20 nA) was measured in response to the application of 10 μM all-trans-retinoic acid (See FIGS. 9A–9C and 10).

[2] = tested on: mock-transfected CHO cells; assay: cAMP and IP release in mock-transfected CHO cells; assay type: cell-based, Chinese hamster
Method: CHO cells are grown on 150 mm plates in HAM's F-12 medium with supplements (10% bovine calf serum, 4 mM L-glutamine and 100 units/ml penicillin/100 μg/ml streptomycin) at 37° C., 5% CO2. Stock plates of CHO cells are trypsinized and split 1:8 every 3–4 days.
as §1, with “capacitance).” for “capacitance). Following the pulse, 800 μl of complete DMEM is added to each cuvette and the suspension transferred to a sterile tube. Complete medium is added to each tube to bring the final cell concentration to 1×10^5 cells/100 μl.”
as §2

SNORF25 [3] = biological target: T2, SNORF25; assay: Cl- currents via phospholipase C pathway in SNORF25 oocytes; assay type: cell-based; set-up: from linearized plasmids or PCR products containing the complete coding region of the genes; expressed in transfected cells; host or cells: Xenopus laevis oocytes injected with SNORF25 mRNA (with or without CFTR mRNA)
Method: as §3
Heterologous expression of GPCRs in Xenopus oocytes has been widely used to determine the identity of signaling pathways activated by agonist stimulation (Gundersen et al., 1983; Takahashi et al., 1987). Activation of the phospholipase C (PLC) pathway is assayed by applying a test compound in ND96 solution to oocytes previously injected with mRNA for the SNORF25 receptor and observing inward currents at a holding potential of approximately −80 mV. The appearance of currents that reverse at −25 mV and display other properties of the Ca^++-activated Cl^− channel is indicative of receptor-activation of PLC and release of IP3 and intracellular Ca^++.

T1 sequence (P50406 whole entry): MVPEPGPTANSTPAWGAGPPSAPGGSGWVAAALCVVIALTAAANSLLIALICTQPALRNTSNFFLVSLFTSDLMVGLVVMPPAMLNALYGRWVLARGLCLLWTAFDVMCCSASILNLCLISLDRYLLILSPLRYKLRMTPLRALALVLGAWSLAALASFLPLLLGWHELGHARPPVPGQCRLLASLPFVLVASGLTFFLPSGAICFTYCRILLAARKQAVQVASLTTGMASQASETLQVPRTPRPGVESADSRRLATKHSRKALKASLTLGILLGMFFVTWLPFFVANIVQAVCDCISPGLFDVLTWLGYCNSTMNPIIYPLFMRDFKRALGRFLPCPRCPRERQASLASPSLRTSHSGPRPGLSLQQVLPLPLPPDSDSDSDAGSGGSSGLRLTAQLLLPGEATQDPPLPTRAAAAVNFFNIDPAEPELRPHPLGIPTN

CC1=C(/C=C/C(C)=C/C=C/C(C)=C/C(=O)O)C(C)(C)CCC1 [ATRA, all-trans-retinoic acid]
cAMP response (serotonin 5-HT6 receptor): no response | inward Cl- current amplitude (SNORF25 [1]; 10 μM, oocytes with SNORF25 and CFTR mRNA): 105±20 nA | delay for activation of CFTR (SNORF25 [1]; SNORF25-expressing oocytes): ~10 s | cAMP and IP release in mock-transfected CHO cells [2]: without affecting these parameters | responses in oocytes expressing chimeric G-proteins (SNORF25 [3]; chimeric G-proteins coupling Gi and Go GPCRs to phospholipase C pathway): not evoked | Cl- currents in oocytes lacking CFTR (SNORF25 [3]; oocytes lacking CFTR, Gq-mediated phospholipase C pathway): did not stimulate Cl^− currents

Reference: US7416848B2, “DNA encoding SNORF25 receptor” (H. Lundbeck A/S, priority 1999, dated 2008)
